Read-outs that look alike come from different tables or passages of the source.

Experiment [1] has as its target tankyrase 2 protein PARP domain, TNKS2P (GST-tagged) (Homo sapiens (Human), UniProt Q9H2K2). Kind of experiment: TNKS2 autoparsylation (AP) biochemical assay, LC/MS detection of nicotinamide. The conditions noted are these: 20 nM enzyme, 250 μM NAD+, 60 min room temperature.
Experiment [2] addresses human tankyrase 1 PARP catalytic domain, TNKS1P (GST-tagged) (Homo sapiens (Human), UniProt O95271). The experiment can be described thus: TNKS1 autoparsylation (AP) biochemical assay, LC/MS detection of nicotinamide. To be noted: 20 nM enzyme, 250 μM NAD+, 60 min room temperature. The protocol: The human tankyrase 1 PARP catalytic domain, TNKS1P, was cloned into a pDONR221 vector using the Invitrogen Gateway Technology. This entry clone was then subcloned into the destination vector pDEST20 to obtain the N-terminal Glutathione S-transferase (GST)-tagged fusion protein.
The autoparsylation activity of the TNKS 1/2 or PARP1/2 enzymes was measured by the liquid chromatography-mass spectrometry (LC/MS) detection of nicotinamide as readout. Compound activity in inhibiting the TNKS and PARP autoparsylation was evaluated by IC50 measurements.

Experiment [3] relates to Wnt ligand-induced signaling. The experiment can be described thus: Wnt-responsive Super-TOpFlash (STF) luciferase reporter gene assay in HEK293 cells. The experiment is classed as cell-based. The conditions noted are these: Wnt3A condition medium induced. On the procedure: Compound activity in inhibiting Wnt ligand-induced signaling was measured using a Wnt-responsive Super-TOpFlash (STF) luciferase reporter gene assay in HEK293 cells. On day 1 of the assay, cells were plated at a density of 8000 cells per well of 384-well plate in 25 μl medium containing 5% fetal bovine serum (FBS). On the second day, […] condition medium (CM) produced from mouse L cells was added to the cells to induce Wnt signaling, followed by addition of 5 μL of compounds each well in 10-point serial dilution. On the third day, the luciferase activity was measured by the Bright-Glo™ Luciferase Assay System following manufacture's protocol (Promega, E2620). The Inhibition was calculated as: (Maximum Wnt-induced signaling−Sample)/(Maximum Wnt-induced signaling−Background)*100. “Maximum Wnt-induced signaling” is the STF signal level induced by 20% Wnt3A CM without compound; and “Background” is the STF signal level without the addition of Wnt3A CM or compound.

A further experiment deals with Axin2 protein. The experiment can be described thus: Cellular ELISA assay for stabilizing the Axin2 protein in SW480 cells. The conditions noted are these: 24 hrs treatment, read-out: Axin AC50. The experiment is classed as cell-based. On the procedure:
Compound activity in stabilizing the Axin2 protein was measured by Sandwich Enzyme-Linked Immuosorbent (ELISA) assay in the colorectal cell line SW480. 30,000 SW480 cells were seeded per well in 96-well plate and incubated overnight prior to compound treatment. Cells were then treated with compounds in 6-point dilution starting at 10 μM for 24 hrs. Cells were then washed with 100 μL of cold Phosphate Buffer Saline (PBS), and lysed in 125 μl of cold 1× lysis buffer (Cell Signaling Technology, 9803) supplemented with Protease inhibitor (Roche, 11836170) and Phosphatase inhibitors (Sigma, P2850, P5726). For the ELISA assay, anti Axin-2 capture antibody (Strategic Diagnostics) antibody was diluted to a concentration of 1 μg/ml (1:1000) in Carbonate Coating buffer, pH 9.2 (Sigma, C3041-50CAP). 100μ of the diluted anti Axin-2 capture antibody per well was then used to coat the 96-well ELISA plate (Thermo Electron Corp., MicroLite 1 flat bottom plate #7571) overnight at 4° C. Plates were then washed three times with 300 μl/well of wash solution, PBST20 (PBS+0.05% Tween), and blocked with 300 μl/well 1% BSA/PBS (BSA, Millipore Probumin #82-045-1) for 1.5 hours at room temperature while shaking gently. After blocking, plates were then washed three times with 300 μl/well of wash solution. 100 μL of prepared SW480 cell lysate was then added to each well and incubated at room temperature for 2 hours while shaking gently. After washing, 100 μL of Biotinylated anti-Axin2 antibody (CST, 2151) was added to each well and incubated room temperature for 2 hours. 100 μL of Streptavidin-HRP (R&D systems, DY998) diluted 1:200 in 1% BSA/PBS was then added in each well and incubate for 30 mins at R/T in the dark. Signal was detected by Chemiluminescence (Pierce SuperSignal ELISA Femto #3704), and measured on PerkinElmer Wallac 1420 plate reader.

In experiment [4] the test system is Non-small lung cancer ABC-1 cells. Kind of experiment: Cellular proliferation assay, ABC-1 cells (CellTiter-Glo). It counts as cell-based. The conditions noted are these: 3 days of compound treatment. On the procedure:
Non-small lung cancer ABC-1 cells were plated at 5000 cells per well in 96-well plates and treated with 8 serial compound dilutions starting from 10 μM as the highest concentration. Viable cells were measured after 3 days of compound treatment using the CellTiter-Glo assay (Promega, G7570). Assay was performed following the manufacture protocol.

tankyrase 2 protein PARP domain, TNKS2P (GST-tagged), sequence (Q9H2K2 959-1164): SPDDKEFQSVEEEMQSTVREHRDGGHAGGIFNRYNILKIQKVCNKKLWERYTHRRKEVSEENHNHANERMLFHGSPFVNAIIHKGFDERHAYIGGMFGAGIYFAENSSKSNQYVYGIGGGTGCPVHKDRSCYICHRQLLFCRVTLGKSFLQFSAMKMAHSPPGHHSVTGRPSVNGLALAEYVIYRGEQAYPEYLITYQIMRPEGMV
human tankyrase 1 PARP catalytic domain, TNKS1P (GST-tagged), sequence (O95271 1112-1317): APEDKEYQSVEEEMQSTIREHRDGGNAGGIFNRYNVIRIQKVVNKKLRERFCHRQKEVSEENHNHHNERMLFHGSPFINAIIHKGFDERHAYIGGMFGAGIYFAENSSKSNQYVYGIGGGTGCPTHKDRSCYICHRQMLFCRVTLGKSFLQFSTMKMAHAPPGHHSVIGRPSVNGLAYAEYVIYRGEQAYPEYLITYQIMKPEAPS

Turning to `COc1ccc(C(=O)C2CCN(C3CCN(Cc4cccc(Cl)c4C#N)C3=O)CC2)cc1` (stereo not drawn) [Example 1, 2-Chloro-6-{3-[4-(4-methoxy-benzoyl)-piperidin-1-yl]-2-oxo-pyrrolidin-1-ylmethyl}-benzonitrile], the IC50 was 81 ± 1 nM in experiment [1]; 162 ± 4 nM in experiment [2]; 99 ± 11 nM in experiment [3] (Homo sapiens); 408 nM in experiment [4] (Homo sapiens, 72 h). In addition, the AC50 in the experiment on Axin2 protein (Homo sapiens) is 239 ± 31 nM.

As for `COc1ccc(C(=O)C2CCN([C@@H]3CCN(Cc4nc5c(c(=O)[nH]4)COCC5)C3=O)CC2)cc1` [Example 4, 2-{(R)-3-[4-(4-Methoxy-benzoyl)-piperidin-1-yl]-2-oxo-pyrrolidin-1-ylmethyl}-3,5,7,8-tetrahydro-pyrano[4,3-d]pyrimidin-4-one], the IC50 in experiment [1] was determined as 600 ± 330 nM; in experiment [2] it was 1600 ± 1200 nM; in experiment [3] (Homo sapiens) it was 95 ± 11 nM; in experiment [4] (Homo sapiens, 72 h), 1020 ± 340 nM. The AC50 in the experiment on Axin2 protein (Homo sapiens) was 310 ± 270 nM.

Consider `COc1ccc(C(=O)C2CCN(C3CCN(Cc4ccc(Cl)c(C#N)c4)C3=O)CC2)cc1` (stereo not drawn) [Example 5, 2-Chloro-5-((3-(4-(4-methoxybenzoyl)piperidin-1-yl)-2-oxopyrrolidin-1-yl)methyl)benzonitrile], for which the 50% inhibitory concentration (IC50) came to 15 ± 1 nM in experiment [1]; 36 ± 1 nM in experiment [2]; 17 ± 3 nM in experiment [3] (Homo sapiens); 156 nM in experiment [4] (Homo sapiens, 72 h). In the experiment on Axin2 protein (Homo sapiens), the concentration at half-maximal activity (AC50) was 66 ± 1 nM.

As for `COc1ccc(C(=O)C2CCN(C3CCN(Cc4nc5ccsc5c(=O)[nH]4)C3=O)CC2)cc1` (stereo not drawn) [Example 7], the IC50 came to 83 ± 5 nM in experiment [1]; 211 ± 63 nM in experiment [2]; 54 ± 12 nM in experiment [3] (Homo sapiens); 1470 nM in experiment [4] (Homo sapiens, 72 h). For the same molecule, the AC50 in the experiment with Axin2 protein (Homo sapiens) is 451 ± 68 nM.

Turning to `COc1ccc(C(=O)C2CCN(C3CCN(Cc4nc5sc(C)cc5c(=O)[nH]4)C3=O)CC2)cc1` (stereo not drawn) [Example 8], the IC50 was 141 ± 40 nM in experiment [1]; 96 ± 28 nM in experiment [2]; 18 ± 4 nM in experiment [3] (Homo sapiens); 133 nM in experiment [4] (Homo sapiens, 72 h). In addition, in the experiment with Axin2 protein (Homo sapiens), the half-maximal activity concentration (AC50) came out at 78 ± 13 nM.

`O=C(c1ccc(F)cc1)C1CCN([C@@H]2CCN(Cc3nc4c(c(=O)[nH]3)COCC4)C2=O)CC1` [Example 12, 2-{(R)-3-[4-(4-Fluoro-benzoyl)-piperidin-1-yl]-2-oxo-pyrrolidin-1-ylmethyl}-3,5,7,8-tetrahydro-pyrano[4,3-d]pyrimidin-4-one]: the IC50 in experiment [1] is 2120 ± 50 nM; in experiment [2], 5340 ± 340 nM; in experiment [3] (Homo sapiens), 620 ± 90 nM; in experiment [4] (Homo sapiens, 72 h), > 10000 nM. For the same molecule, the AC50 in the experiment with Axin2 protein (Homo sapiens) was > 10000 nM.

Regarding `COc1ccc(C(=O)C2CCN([C@@H]3CCN(Cc4nc5c(c(=O)[nH]4)COCC5)C3=O)CC2)cc1C` [Example 14, 2-{(R)-3-[4-(4-Methoxy-3-methyl-benzoyl)-piperidin-1-yl]-2-oxo-pyrrolidin-1-ylmethyl}-3,5,7,8-tetrahydro-pyrano[4,3-d]pyrimidin-4-one], the IC50 in experiment [1] was 206 ± 20 nM; in experiment [2], 711 ± 20 nM; in experiment [3] (Homo sapiens), 31 ± 3 nM; in experiment [4] (Homo sapiens, 72 h) it was 149 nM. Moreover, the AC50 in the experiment with Axin2 protein (Homo sapiens) was determined as 128 ± 130 nM.

Regarding `COc1ccc2c(c1)CC1(CCN(C3CCN(Cc4nc5c(c(=O)[nH]4)COCC5)C3=O)CC1)C2=O` (stereo not drawn) [Example 15, 2-((3-(5-methoxy-1-oxo-1,3-dihydrospiro[indene-2,4′-piperidine]-1′-yl)-2-oxopyrrolidin-1-yl)methyl)-7,8-dihydro-3H-pyrano[4,3-d]pyrimidin-4(5H)-one], the IC50 in experiment [2] is 33 ± 2 nM; in experiment [3] (Homo sapiens), < 0.5 nM; in experiment [4] (Homo sapiens, 72 h), 43 nM. Moreover, the AC50 in the experiment on Axin2 protein (Homo sapiens) stood at 16 ± 1 nM.

For the molecule `COc1ccc2c(c1)CC1(CCN([C@H]3CCN(Cc4nc5c(c(=O)[nH]4)COCC5)C3=O)CC1)C2=O` [Example 16], the IC50 in experiment [2] was determined as 12 ± 1 nM; in experiment [3], 1.7 ± 0.2 nM; in experiment [4], 82 nM. Moreover, the AC50 in the experiment on Axin2 protein stood at 7 ± 1 nM.

In the case of `COc1ccc2c(c1)CC1(CCN([C@@H]3CCN(Cc4nc5c(c(=O)[nH]4)COCC5)C3=O)CC1)C2=O` [Example 17], the IC50 in experiment [2] stood at 3850 ± 480 nM; in experiment [3], 396 ± 10 nM; in experiment [4], 2000 ± 900 nM. The AC50 in the experiment on Axin2 protein amounted to 1790 ± 140 nM.

As to `COc1ccc(C(=O)C2CCN(C3CCCN(Cc4nc5c(c(=O)[nH]4)COCC5)C3=O)CC2)cc1` (stereo not drawn) [Example 18, 2-[4-(4-Methoxy-benzoyl)-2′-oxo-[1,3′]bipiperidinyl-1′-ylmethyl]-3,5,7,8-tetrahydro-pyrano[4,3-d]pyrimidin-4-one], the concentration for half-maximal inhibition (IC50) in experiment [1] stood at 15 ± 1 nM; in experiment [2], 46 ± 1 nM; in experiment [3] (Homo sapiens), 5.6 ± 0.7 nM; in experiment [4] (Homo sapiens, 72 h) it was 99 nM. Further, the AC50 with Axin2 protein (Homo sapiens) worked out at 51 ± 7 nM.

Consider `COc1ccc(C(=O)C2CCN(C3CCN(Cc4nccc(=O)[nH]4)C3=O)CC2)cc1` (stereo not drawn) [Example 22, 2-{3-[4-(4-Methoxy-benzoyl)-piperidin-1-yl]-2-oxo-pyrrolidin-1-ylmethyl}-3H-pyrimidin-4-one], for which the half-inhibitory concentration (IC50) in experiment [1] came to 764 ± 56 nM; in experiment [2] it was 1500 ± 120 nM; in experiment [3] (Homo sapiens), 390 ± 190 nM.

Regarding `COc1ccc(C(=O)C2CCN(C3CCN(Cc4nc5ccccc(=O)c5[nH]4)C3=O)CC2)cc1` (stereo not drawn) [Example 27, 2-((3-(4-(4-methoxybenzoyl)piperidin-1-yl)-2-oxopyrrolidin-1-yl)methyl)cyclohepta[d]imidazol-4(3H)-one], the half-inhibitory concentration (IC50) in experiment [2] was determined as 36 ± 3 nM; in experiment [3] (Homo sapiens) it was 0.4 ± 0.3 nM; in experiment [4] (Homo sapiens, 72 h) it was 1.5 nM. In the experiment on Axin2 protein (Homo sapiens), the AC50 is 3.2 ± 0.1 nM.

Turning to `COc1ccc(C(=O)C2CCN([C@H]3CCN(Cc4nc5ccccc(=O)c5[nH]4)C3=O)CC2)cc1` [Example 30, 2-{(S)-3-[4-(4-Methoxy-benzoyl)-piperidin-1-yl]-2-oxo-pyrrolidin-1-ylmethyl}-3H-cycloheptaimidazol-4-one], the 50% inhibitory concentration (IC50) in experiment [2] was determined as 9.5 ± 0.7 nM; in experiment [3] (Homo sapiens), 1.1 ± 0.1 nM; in experiment [4] (Homo sapiens, 72 h), 0.86 ± 0.1 nM. Further, the concentration at half-maximal activity (AC50) in the experiment on Axin2 protein (Homo sapiens) is 0.6 ± 0.1 nM.

On to `COc1ccc(C(=O)C2CCN([C@H]3CCN(CC(=O)Nc4nnc5n4CCS5)C3=O)CC2)cc1` [Example 33], for which the IC50 in experiment [2] turned out to be 830 ± 20 nM; in experiment [4], 1610 nM. For the same molecule, the concentration at half-maximal activity (AC50) in the experiment on Axin2 protein was determined as 1340 ± 110 nM.

As for `COc1ccc(C(=O)C2CCN(C3CCN(CC(=O)Nc4nnnn4C)C3=O)CC2)cc1` (stereo not drawn) [Example 36, 2-(3-(4-(4-methoxybenzoyl)piperidin-1-yl)-2-oxopyrrolidin-1-yl)-N-(1-methyl-1H-tetrazol-5-yl)acetamide], the IC50 was 1480 ± 20 nM in experiment [1]; 3080 ± 230 nM in experiment [2]; 7600 ± 800 nM in experiment [3] (Homo sapiens); > 10000 nM in experiment [4] (Homo sapiens, 72 h).

For the molecule `COc1ccc(C(=O)C2CCN(C3CCN(CC(=O)Nc4nncc5c4CCCO5)C3=O)CC2)cc1` (stereo not drawn) [Example 37, N-(3,4-dihydro-2H-pyrano[2,3-d]pyridazin-5-yl)-2-(3-(4-(4-methoxybenzoyl)piperidin-1-yl)-2-oxopyrrolidin-1-yl)acetamide], the concentration for half-maximal inhibition (IC50) in experiment [1] was 970 ± 60 nM; in experiment [2] it was 3010 ± 60 nM; in experiment [3] (Homo sapiens), 396 ± 26 nM; in experiment [4] (Homo sapiens, 72 h) it was 2230 nM.

As for `COc1ccc(C(=O)C2CCN(C3CCN(CC(=O)Nc4noc5ncccc45)C3=O)CC2)cc1` (stereo not drawn) [Example 38, N-(isoxazolo[5,4-b]pyridin-3-yl)-2-(3-(4-(4-methoxybenzoyl)piperidin-1-yl)-2-oxopyrrolidin-1-yl)acetamide], the 50% inhibitory concentration (IC50) in experiment [1] is 4560 ± 40 nM; in experiment [2] it was 6500 ± 800 nM; in experiment [3] (Homo sapiens), 2030 ± 180 nM; in experiment [4] (Homo sapiens, 72 h) it was 7900 nM.

Source of the values: US9163003B2, “4-piperidinyl compounds for use as tankyrase inhibitors” (NOVARTIS AG, priority 2011, dated 2015).
